# Laboratory results published in ChEMBL document CHEMBL1201862, “PubChem BioAssay data set” (2004).
# Active and inactive are the calls of the source.
# Tests used:
# fMet-Leu-Phe receptor = molecular target: T1, fMet-Leu-Phe receptor (Homo sapiens, UniProt P21462); test: FPR ligands, dose response (AID 519); assay type: functional
# T1 sequence (P21462 whole entry): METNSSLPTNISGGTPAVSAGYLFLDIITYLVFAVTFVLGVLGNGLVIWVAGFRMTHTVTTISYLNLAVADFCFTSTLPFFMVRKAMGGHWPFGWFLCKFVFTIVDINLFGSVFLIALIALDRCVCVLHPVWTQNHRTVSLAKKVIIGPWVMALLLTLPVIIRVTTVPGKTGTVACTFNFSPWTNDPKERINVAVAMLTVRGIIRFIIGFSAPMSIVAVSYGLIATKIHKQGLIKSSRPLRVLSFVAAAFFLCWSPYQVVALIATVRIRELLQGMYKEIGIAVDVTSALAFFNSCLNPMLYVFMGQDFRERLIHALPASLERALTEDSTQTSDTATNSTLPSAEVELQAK
# cells = assay type: functional
# CAAX prenyl protease 2 = CAAX prenyl protease 2 (Saccharomyces cerevisiae S288c, UniProt Q03530); assay type: biochemical
# CAAX prenyl protease 2, sequence (Q03530 whole entry): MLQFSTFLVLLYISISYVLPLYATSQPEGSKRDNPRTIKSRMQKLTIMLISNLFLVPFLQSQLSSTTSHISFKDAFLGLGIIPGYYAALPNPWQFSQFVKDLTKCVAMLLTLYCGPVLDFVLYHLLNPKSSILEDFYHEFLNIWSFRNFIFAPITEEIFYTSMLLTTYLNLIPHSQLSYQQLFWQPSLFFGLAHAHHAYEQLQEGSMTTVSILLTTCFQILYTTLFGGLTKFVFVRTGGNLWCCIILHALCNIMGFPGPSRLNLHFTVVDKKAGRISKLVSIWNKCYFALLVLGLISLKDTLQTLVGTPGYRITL
# Trypsin = Trypsin (Sus scrofa, UniProt P00761); test: porcine trypsin inhibitors, dose response, selectivity assay for Rce1 protease inhibitor project, biochemical, quenched peptide fluorescence, cherry-pick (AID 488789)
# Trypsin, sequence (P00761 whole entry): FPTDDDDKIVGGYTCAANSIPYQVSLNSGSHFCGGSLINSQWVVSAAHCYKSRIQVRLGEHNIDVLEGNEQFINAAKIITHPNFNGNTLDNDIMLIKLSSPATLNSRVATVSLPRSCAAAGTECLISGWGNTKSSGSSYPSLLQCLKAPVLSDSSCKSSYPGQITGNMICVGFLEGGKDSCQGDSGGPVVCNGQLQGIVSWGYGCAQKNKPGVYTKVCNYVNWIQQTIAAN
# [1] = A Cell Based Secondary Assay To Explore Cytotoxicity of Compounds that Sensitize Mycobacterium Tuberculosis to Beta-Lactam Antibiotics.; assay type: functional
# [2] = molecular target: T2, Short transient receptor potential channel 4 (Mus musculus, UniProt Q9QUQ5); test: TRPC4 positive allosteric modulators, dose response, cell-based, HEK293 TRPC4/mu-opioid, Fluo-4 calcium, EC20 DAMGO (AID 434941); assay type: functional
# T2 sequence (Q9QUQ5 whole entry): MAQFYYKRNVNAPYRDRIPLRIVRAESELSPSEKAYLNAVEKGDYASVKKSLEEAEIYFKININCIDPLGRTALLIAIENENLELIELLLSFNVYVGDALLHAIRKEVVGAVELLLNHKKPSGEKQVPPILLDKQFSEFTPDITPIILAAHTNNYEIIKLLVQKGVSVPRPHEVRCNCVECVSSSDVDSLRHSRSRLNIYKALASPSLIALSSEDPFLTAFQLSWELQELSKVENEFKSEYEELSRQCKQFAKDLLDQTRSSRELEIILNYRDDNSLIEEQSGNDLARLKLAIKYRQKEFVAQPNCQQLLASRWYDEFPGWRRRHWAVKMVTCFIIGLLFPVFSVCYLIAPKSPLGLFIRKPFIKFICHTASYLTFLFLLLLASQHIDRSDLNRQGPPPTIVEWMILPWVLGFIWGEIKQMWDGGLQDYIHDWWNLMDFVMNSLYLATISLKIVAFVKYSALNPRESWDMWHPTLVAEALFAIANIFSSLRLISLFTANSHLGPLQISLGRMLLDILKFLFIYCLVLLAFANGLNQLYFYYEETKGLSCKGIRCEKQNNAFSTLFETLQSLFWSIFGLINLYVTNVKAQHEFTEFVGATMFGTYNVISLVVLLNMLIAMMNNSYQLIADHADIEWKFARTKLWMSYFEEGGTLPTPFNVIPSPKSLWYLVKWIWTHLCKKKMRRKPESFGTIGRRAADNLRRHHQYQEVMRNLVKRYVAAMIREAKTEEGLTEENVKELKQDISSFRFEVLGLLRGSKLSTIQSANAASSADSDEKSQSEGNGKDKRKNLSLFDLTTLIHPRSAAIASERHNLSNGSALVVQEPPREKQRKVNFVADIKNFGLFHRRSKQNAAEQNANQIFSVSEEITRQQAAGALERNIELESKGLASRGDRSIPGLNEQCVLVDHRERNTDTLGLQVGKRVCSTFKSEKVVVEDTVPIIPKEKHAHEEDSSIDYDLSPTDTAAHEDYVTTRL
# Mu-type opioid receptor = Mu-type opioid receptor (Homo sapiens, UniProt P35372); test: SAR Analysis of Agonists of the MOR Receptor using an Image-Based Assay - Set 3. [Related pubchem assays (depositor defined):AID1777, AID1785, AID1786, AID1966, AID2133, AID2136, AID2284, AID2285, AID2352]; assay type: functional
# Mu-type opioid receptor, sequence (P35372 whole entry): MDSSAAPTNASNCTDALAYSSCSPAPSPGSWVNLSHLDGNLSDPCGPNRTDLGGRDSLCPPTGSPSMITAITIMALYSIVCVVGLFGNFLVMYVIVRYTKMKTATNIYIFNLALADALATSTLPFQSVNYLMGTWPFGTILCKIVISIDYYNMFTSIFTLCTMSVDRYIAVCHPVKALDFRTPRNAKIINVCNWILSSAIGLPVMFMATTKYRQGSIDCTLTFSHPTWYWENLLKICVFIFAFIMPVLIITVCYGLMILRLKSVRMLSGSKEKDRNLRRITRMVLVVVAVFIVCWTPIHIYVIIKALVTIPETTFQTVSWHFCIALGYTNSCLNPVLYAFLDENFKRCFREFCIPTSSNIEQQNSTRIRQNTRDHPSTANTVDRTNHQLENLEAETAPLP
# [3] = molecular target: T3, Kappa-type opioid receptor (Homo sapiens, UniProt P41145); test: SAR analysis of small molecule agonists of the kappa opioid receptor via a luminescent beta-arrestin assay - Set 3. [Related pubchem assays (depositor defined):AID1777, AID1785, AID1786, AID1966, AID2133, AID2136, AID2284, AID2500]; assay type: functional
# T3 sequence (P41145 whole entry): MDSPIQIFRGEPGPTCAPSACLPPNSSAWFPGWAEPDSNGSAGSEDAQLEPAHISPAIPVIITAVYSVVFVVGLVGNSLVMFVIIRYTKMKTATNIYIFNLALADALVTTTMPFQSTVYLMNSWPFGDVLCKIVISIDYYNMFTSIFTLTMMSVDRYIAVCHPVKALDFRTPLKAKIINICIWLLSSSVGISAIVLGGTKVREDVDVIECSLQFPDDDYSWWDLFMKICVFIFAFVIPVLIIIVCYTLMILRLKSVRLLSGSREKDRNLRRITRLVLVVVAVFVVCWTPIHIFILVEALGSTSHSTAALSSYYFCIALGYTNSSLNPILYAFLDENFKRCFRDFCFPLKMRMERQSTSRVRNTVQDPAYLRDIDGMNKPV
# [4] = molecular target: T3, Kappa-type opioid receptor; test: KOR agonist analogs, arrestin-GFP redistribution, SAR follow-up, imaging, image-based, set 3 (AID 488833); assay type: functional
# [5] = molecular target: Delta-type opioid receptor (Homo sapiens, UniProt P41143); test: SAR Analysis of Agonists of the DOR Receptor using an Image-Based Assay - Set 3. [Related pubchem assays (depositor defined):AID1777, AID1786]; assay type: functional
# Delta-type opioid receptor, sequence (P41143 whole entry): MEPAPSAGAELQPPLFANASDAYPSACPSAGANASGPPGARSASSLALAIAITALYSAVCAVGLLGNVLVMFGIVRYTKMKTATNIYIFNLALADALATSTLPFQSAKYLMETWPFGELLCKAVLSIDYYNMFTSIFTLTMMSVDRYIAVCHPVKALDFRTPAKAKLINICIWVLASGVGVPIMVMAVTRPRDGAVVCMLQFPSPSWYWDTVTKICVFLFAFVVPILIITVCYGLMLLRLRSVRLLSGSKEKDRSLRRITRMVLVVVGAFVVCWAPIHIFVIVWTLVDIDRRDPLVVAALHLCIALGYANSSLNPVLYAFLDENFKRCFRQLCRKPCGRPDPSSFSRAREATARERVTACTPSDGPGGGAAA
# Nonstructural protein 1 = Nonstructural protein 1 (Influenza A virus, UniProt Q194T2); assay type: functional, Influenza A virus (A/California/07/2009(H1N1))
# Nonstructural protein 1, sequence (Q194T2 whole entry): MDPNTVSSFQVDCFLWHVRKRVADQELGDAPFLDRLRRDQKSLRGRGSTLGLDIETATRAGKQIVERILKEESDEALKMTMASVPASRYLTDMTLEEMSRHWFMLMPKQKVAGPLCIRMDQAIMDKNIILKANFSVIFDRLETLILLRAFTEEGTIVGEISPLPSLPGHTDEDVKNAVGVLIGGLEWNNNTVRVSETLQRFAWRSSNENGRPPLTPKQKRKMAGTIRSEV
# [6] = molecular target: G-protein coupled receptor 35 (Homo sapiens, UniProt Q9HC97); test: GPR35 antagonists blocking zaprinast-driven arrestin recruitment, primary screen, imaging, U2OS, beta-arrestin-GFP, zaprinast agonist (AID 2058); assay type: functional;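 also: antagonist potency meaning inhibition of agonist-induced arrestin redistribution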
# G-protein coupled receptor 35, sequence (Q9HC97 whole entry): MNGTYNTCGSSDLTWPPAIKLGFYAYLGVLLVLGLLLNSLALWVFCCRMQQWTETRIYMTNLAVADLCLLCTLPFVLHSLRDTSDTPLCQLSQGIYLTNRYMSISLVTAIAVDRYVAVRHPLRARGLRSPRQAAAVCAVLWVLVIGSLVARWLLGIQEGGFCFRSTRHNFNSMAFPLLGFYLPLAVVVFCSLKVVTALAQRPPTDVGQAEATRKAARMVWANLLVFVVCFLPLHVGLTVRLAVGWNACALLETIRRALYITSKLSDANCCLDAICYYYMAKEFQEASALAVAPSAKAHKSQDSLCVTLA
# [7] = molecular target: G-protein coupled receptor 55 (Homo sapiens, UniProt Q9Y2T6); test: GPR55 antagonists blocking LPI-driven arrestin recruitment, primary screen, imaging, U2OS, beta-arrestin-GFP, LPI agonist (AID 2013); assay type: functional;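 also: antagonist potency measured as reduced agonist-driven arrestin aggregation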
# G-protein coupled receptor 55, sequence (Q9Y2T6 whole entry): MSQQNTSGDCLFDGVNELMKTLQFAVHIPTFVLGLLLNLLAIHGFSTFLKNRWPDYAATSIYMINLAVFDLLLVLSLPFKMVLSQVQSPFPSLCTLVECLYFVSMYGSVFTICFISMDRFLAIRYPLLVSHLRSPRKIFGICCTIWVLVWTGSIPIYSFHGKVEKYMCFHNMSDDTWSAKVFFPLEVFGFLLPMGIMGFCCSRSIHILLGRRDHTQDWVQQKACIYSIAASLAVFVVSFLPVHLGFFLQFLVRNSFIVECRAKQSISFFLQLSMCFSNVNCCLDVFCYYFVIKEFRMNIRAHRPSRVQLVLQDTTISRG
# Large T antigen = Large T antigen (Simian virus 40, UniProt P03070); assay type: functional, Betapolyomavirus macacae;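 also: Confirmatory-stage PubChem screen for compounds that inhibit SV40 T antigen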
# Large T antigen, sequence (P03070 whole entry): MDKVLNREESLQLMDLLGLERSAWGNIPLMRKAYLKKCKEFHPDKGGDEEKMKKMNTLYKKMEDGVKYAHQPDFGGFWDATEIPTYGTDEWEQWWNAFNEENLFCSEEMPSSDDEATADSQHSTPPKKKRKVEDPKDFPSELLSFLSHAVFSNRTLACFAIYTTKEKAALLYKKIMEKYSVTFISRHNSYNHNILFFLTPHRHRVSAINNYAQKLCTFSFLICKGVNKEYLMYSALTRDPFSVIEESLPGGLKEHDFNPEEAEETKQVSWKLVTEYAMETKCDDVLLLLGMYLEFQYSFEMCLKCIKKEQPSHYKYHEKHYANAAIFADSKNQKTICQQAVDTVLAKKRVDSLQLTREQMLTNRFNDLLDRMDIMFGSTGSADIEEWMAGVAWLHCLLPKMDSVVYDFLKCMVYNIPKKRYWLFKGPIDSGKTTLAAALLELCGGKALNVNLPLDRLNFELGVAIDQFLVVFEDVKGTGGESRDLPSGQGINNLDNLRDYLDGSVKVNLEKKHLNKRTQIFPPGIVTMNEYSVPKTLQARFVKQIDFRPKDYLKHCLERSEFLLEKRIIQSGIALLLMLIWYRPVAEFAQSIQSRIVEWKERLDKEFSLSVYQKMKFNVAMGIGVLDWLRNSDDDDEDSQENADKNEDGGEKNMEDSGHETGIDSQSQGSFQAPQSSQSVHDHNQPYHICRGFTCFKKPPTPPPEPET
# [8] = molecular target: T4, Endoribonuclease toxin MazF (Escherichia coli K-12, UniProt P0AE70); test: MazF toxin RNase activators, dose response, biochemical, fluorescence, single-stranded RNA substrate, uHTS hits (AID 588481); assay type: functional
# T4 sequence (P0AE70 whole entry): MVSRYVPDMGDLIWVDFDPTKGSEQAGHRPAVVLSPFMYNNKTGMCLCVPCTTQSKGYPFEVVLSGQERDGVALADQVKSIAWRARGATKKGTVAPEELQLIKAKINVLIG
# [9] = molecular target: T4, Endoribonuclease toxin MazF; test: fluorescent RNA oligo signal without MazF, dose response, counter-screen for MazEF activator project, biochemical, fluorescence, single-stranded RNase substrate (AID 588502); assay type: functional
# [10] = molecular target: T5, Tyrosine-protein phosphatase non-receptor type 7 (Homo sapiens, UniProt P35236); test: redox-dependent HePTP inhibition, mechanism study, biochemical, fluorescence (AID 2068); assay type: functional
# T5 sequence (P35236 whole entry): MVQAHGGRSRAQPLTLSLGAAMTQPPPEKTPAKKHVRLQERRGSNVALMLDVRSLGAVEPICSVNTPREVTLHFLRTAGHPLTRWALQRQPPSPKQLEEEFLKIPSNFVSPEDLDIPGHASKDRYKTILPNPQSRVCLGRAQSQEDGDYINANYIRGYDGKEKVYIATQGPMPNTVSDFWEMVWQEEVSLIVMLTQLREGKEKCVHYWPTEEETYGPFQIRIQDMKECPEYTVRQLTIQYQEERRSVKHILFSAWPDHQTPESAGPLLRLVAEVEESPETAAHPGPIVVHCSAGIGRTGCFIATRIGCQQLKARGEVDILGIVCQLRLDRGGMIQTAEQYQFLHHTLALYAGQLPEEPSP
# [11] = molecular target: T6, Dual specificity protein phosphatase 6 (Rattus norvegicus, UniProt Q64346); assay type: functional;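 also: confirmatory in vitro dose-response testing of MKP-3 inhibition; recombinant His-tagged MKP-3 made in E. coli BL21 with OMFP substrate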
# T6 sequence (Q64346 whole entry): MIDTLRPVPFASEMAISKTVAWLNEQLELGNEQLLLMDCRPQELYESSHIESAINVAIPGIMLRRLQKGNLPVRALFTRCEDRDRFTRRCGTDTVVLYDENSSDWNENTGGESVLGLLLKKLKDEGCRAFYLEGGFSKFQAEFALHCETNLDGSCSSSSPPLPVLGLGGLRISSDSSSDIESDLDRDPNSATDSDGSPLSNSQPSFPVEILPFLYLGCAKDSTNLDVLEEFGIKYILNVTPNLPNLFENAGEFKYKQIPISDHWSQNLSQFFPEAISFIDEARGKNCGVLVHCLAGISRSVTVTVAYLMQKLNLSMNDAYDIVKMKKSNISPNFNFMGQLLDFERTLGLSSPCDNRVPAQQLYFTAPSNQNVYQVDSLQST
# [12] = molecular target: DNA dC->dU-editing enzyme APOBEC-3G (Homo sapiens, UniProt Q9HC16); assay type: functional;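 also: Dose-response counterscreen measuring inhibition of APOBEC3G DNA deaminase activity, run while confirming APOBEC3A inhibitors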
# DNA dC->dU-editing enzyme APOBEC-3G, sequence (Q9HC16 whole entry): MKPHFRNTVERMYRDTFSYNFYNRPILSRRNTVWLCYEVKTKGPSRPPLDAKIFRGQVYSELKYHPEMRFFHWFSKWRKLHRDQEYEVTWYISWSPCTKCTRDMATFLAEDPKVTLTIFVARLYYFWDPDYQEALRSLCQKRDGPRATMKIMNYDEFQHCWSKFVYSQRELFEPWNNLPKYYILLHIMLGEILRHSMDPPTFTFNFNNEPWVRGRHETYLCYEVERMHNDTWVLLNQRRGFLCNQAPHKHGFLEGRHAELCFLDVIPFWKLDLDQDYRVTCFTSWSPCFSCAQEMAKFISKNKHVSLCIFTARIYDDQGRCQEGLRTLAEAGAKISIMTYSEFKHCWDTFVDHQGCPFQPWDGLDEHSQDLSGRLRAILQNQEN
# [13] = molecular target: Eukaryotic translation initiation factor 4E (Mus musculus, UniProt P63073); test: eIF4E–eIF4G protein interaction inhibitors, dose response, biochemical, TR-FRET (AID 855); assay type: functional;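 also: potency for disrupting eIF4E binding to eIF4GI seen as loss of FRET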
# Eukaryotic translation initiation factor 4E, sequence (P63073 whole entry): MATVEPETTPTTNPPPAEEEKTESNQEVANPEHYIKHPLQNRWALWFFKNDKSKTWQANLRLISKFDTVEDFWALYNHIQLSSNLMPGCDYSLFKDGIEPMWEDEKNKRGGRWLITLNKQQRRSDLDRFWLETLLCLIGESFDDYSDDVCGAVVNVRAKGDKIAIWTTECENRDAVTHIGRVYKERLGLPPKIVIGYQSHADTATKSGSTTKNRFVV
# [14] = molecular target: DNA dC->dU-editing enzyme APOBEC-3A (Homo sapiens, UniProt P31941); test: Dose Response confirmation of small molecule APOBEC3A DNA Deaminase Inhibitors via a fluorescence-based single-stranded DNA deaminase assay. [Related pubchem assays (depositor defined):AID493011, AID493024]; assay type: functional
# DNA dC->dU-editing enzyme APOBEC-3A, sequence (P31941 whole entry): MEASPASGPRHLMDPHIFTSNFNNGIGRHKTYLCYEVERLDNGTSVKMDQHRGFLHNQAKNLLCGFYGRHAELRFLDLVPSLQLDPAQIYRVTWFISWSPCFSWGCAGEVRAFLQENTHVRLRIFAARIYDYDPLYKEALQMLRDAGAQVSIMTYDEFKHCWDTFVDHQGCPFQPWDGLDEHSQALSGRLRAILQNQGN
compound,measurement,setting,value
CCCc1cc(O)n2nc(C)c(-c3ccccc3)c2n1,Ki,fMet-Leu-Phe receptor,> 66.7 µM (inactive)
same,IC50,cells,46.5 µM (active)
same,AC50,CAAX prenyl protease 2,22.3 µM (active)
same,AC50,Trypsin,5.36 µM (active)
Cc1cccc(Cn2c(N3CCN(c4ccccc4)CC3)nc3c2c(=O)n(C)c(=O)n3C)c1,CC50,[1],> 40 µM (active)
same,EC50,[2],0.84 µM (active)
Cc1c(CSc2nnc(-c3ccccn3)n2Cc2cccs2)cccc1[N+](=O)[O-],EC50,Mu-type opioid receptor,> 32 µM (inactive)
same,EC50,[3],5.82 µM (active)
same,EC50,[4],4.15 µM (active)
same,EC50,[5],> 32 µM (inactive)
CN(C)/C=C/C=C/C=C/C1=[N+](C)c2ccccc2C1(C)C,IC50,Nonstructural protein 1,5.75 µM (active)
same,IC50,[6],1.82 µM (active)
same,IC50,[7],2.05 µM (active)
same,IC50,Large T antigen,27.8 µM (active)
same,EC50,[8],> 99 µM (inactive)
same,EC50,[9],89.5 µM (inactive)
CCN1CCN(Cc2cc(Br)ccc2O)CC1,EC50,[2],0.21 µM (active)
COc1ccc2cc(C(=O)C3CCCN(C(=O)CCc4cnn(C)c4)C3)ccc2c1 (stereo not drawn),AC50,CAAX prenyl protease 2,19.5 µM (active)
same,AC50,Trypsin,11.5 µM (active)
CCN1CCN(C(=S)c2ccc(O)c(OC)c2)CC1,IC50,[10],74.5 µM (active)
same,IC50,[11],> 100 µM (inactive)
O=C(C[n+]1c2n(c3ccc(C(F)(F)F)cc31)CCCCC2)Nc1ccccc1,IC50,[12],3.79 µM (active)
same,IC50,[13],> 64 µM (inactive)
same,IC50,[14],2.76 µM (active)
Cc1ccccc1CSc1nnc(-c2ccccn2)n1Cc1ccco1,EC50,Mu-type opioid receptor,> 32 µM (inactive)
same,EC50,[3],17.7 µM (inactive)
same,EC50,[4],28.7 µM (inactive)
same,EC50,[5],> 64 µM (inactive)
